Data: patent publication US20230399358A1, “IMMUNOGLOBULIN PURIFICATION PEPTIDES AND THEIR USE” (North Carolina State University, priority 2019, published 2023)

How the values were obtained:
human polyclonal IgG = test: Static binding isotherm on WorkBeads adsorbents, Langmuir fit; conditions: WorkBeads adsorbent, PBS pH 7.4, Langmuir fit
Text: Measurements of static and dynamic binding capacity: […] NO:2)-Workbeads and […] NO:30)-Workbeads were characterized in terms of static and dynamic binding capacity respectively by batch and breakthrough binding studies. The peptides […] NO:3) and […] NO:4) were not selected for further studies due to their low selectivity and low yield, respectively. […] The resin was pelleted by centrifugation and the supernatant removed. […] The resulting fractions were combined and analyzed by BCA assay to quantify the unbound IgG and, accordingly, the amount of IgG adsorbed. The resulting data were fit to a Langmuir isotherm to determine the values of Qmax and KD(Solid). […] The amount of unbound IgG was determined by analyzing the supernatants via Micro BCA Protein Assay Kit. The amount of bound IgG per volume of resin (Q) was determined by mass balance and plotted against the corresponding equilibrium concentration of unbound IgG in solution (CIgG). The data were fit to a Langmuir isotherm model, thus providing a value of maximum binding capacity (Qmax) and dissociation constant (KD).

human IgG = test: Dynamic binding capacity by breakthrough assay; conditions: 20 mg/mL IgG in PBS
Experimental: Measurements of dynamic binding capacity (DBC) were performed on a Waters 2695 unit. MWRGWQ (SEQ ID NO:2)—Workbeads and WQRHGIC (SEQ ID NO:30)—Workbeads resins were wet packed in a 0.1 mL microbore column and equilibrated in PBS pH 7.4. A solution of human IgG at 20 mg/mL in PBS was owed through the column at 0.05 mL/min and 0.02 mL/min, corresponding to residence times (RT) of 2 and 5 min, respectively. The bound IgG was eluted with glycine pH 2.5. The absorbance of the effluent was monitored by UV/Vis spectrophotometry at 280 nm throughout the breakthrough study. The DBC was calculated at 10% of the breakthrough curve.
Breakthrough curves (FIG. 5 panels A-D) were obtained by flowing a 20 mg/mL solution of IgG in PBS through the […] and MWRGWQC (SEQ ID NO:31)-WB adsorbents at two different flow rates (0.05 and 0.02 mL/min) corresponding to two different residence times (2 and 5 minutes).

[1] = tested on: human polyclonal IgG in CHO cell culture fluid; test: Chromatographic purification of IgG from CHO cell culture fluid on WorkBeads resin, SDS-PAGE densitometry; conditions: Elution 1 (pH 4), 5 min residence time, FIG. 7B
Experimental: (§1) Purification of IgG from CHO Cell culture fluids using MWRGWQC (SEQ ID NO:31)- and WQRHGIC (SEQ ID NO:30)—Workbeads: A volume of 0.1 mL of resin was packed in a PEEK microbore column, installed on a Waters 2695 unit, and equilibrated with PBS, pH 7.4. All chromatographic buffers were filtered through a compatible 0.2 μm filter prior to use. A volume of 100 μL of solution of human polyclonal IgG at 1 mg/mL in a CHO cell culture fluid at 0.205 mg/mL CHO HCPs was injected in the column at 0.02 mL/min (RT: 5 minutes). Following injection, the resin was washed with PBS at 0.2 mL/min and, subsequently, with 100 mM NaCl in PBS at 0.2 mL/min. Elution was then conducted with […] pH 4. An acidic cleaning step was conducted in 0.1 M glycine pH 2.5 to remove any proteins still bound. The absorbance of the effluent was monitored by UV/Vis spectrophotometry at 280 nm. Fractions were collected and adjusted to neutral pH. Total protein concentration was measured by BCA assay. All collected fractions were also analyzed via SDS PAGE under reducing conditions. The gel was stained by silver staining, and the overall IgG purity in the eluted fractions was determined by densitometric analysis using ImageJ software. Finally, the feed and eluted fractions were analyzed using a CHO-specific ELISA kit to determine the log removal value (LRV) of HCPs.
The high purity of the recovered IgG using WQRHGI (SEQ ID NO:1), as calculated by densitometric analysis (100%) was confirmed by the HCP LRV value of 2.7, thus indicating WQRHGI (SEQ ID NO:1) has purification abilities similar to Protein A. This is a remarkable result. […] The collected chromatographic fractions were analyzed by SDS-PAGE (FIG. 7B, silver stained to highlight diluted CHO HCPs). The % values of IgG in the fractions (expressed as a ratio of IgG concentration over total protein (e.g., IgG+CHO HCPs)) were calculated by densitometric analysis of the lanes in the SDS gel and were as follows: Control (C), 0.00%; Load (L) 59.77%; Flowthrough (FT), 0.00%; Elution 1 (El1), 100.00%; Elution 2 (El2), 0.00%; IgG 93.30%. […]

CHO HCPs = test: CHO HCP-specific ELISA, log removal value of HCPs; parameters: species or system Chinese hamster
Experimental: as §1, with “HCPs. […]” for “HCPs.”

[2] = tested on: human polyclonal IgG in CHO-S cell culture fluid; test: Static purification of IgG from CHO cell culture supernatant on peptide-Toyopearl resins, SDS-PAGE densitometry; conditions: Gel B, lane E (pH 4)

Substance: WQRHGI
- Qmax (human polyclonal IgG): 52.6 mg IgG/mL resin
- Kd (human polyclonal IgG; read-out: KD(Solid)): 3.2 µM
- DBC at 10% breakthrough (human IgG; residence time 2 min): 33.6 mg IgG/mL resin
- DBC at 10% breakthrough (human IgG; residence time 5 min): 43.8 mg IgG/mL resin
- % IgG over total protein [1]: 100%
- HCP clearance (CHO HCPs): greater than 99%
- HCP LRV (CHO HCPs; IgG 1 mg/mL in CHO fluid with 0.205 mg/mL HCPs, elution pH 4): 2.7
- % Purity (IgG over total eluted proteins) [2]: 100%
